Results taken from the supplement of paper PMC10307832.

Legend:
Experiment in all cases: relative viability (nuclei count vs DMSO), 5 days (fraction); higher = more cells survive
NCI-H1650 = tested on: NCI-H1650
Method in brief: (§1)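 Dosing by pin tool came one day after lung cancer cell lines were seeded in 1536-well plates, using either one drug or a fixed anchor-drug dose plus five library-drug doses (not always all listed) in √10 steps. After 5 days, nuclei were counted on 4× images. Relative viability is treated-well nuclei count divided by vehicle-well nuclei count, and values are medians of duplicate plates.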

HCC-44 = tested on: HCC-44
Method in brief: as §1

NCI-H460 = tested on: NCI-H460
Method in brief: as §1

LU99A = tested on: LU99A
Method in brief: as §1

LCLC-97TM1 = tested on: LCLC-97TM1
Method in brief: as §1

201T = tested on: 201T
Method in brief: as §1

COR-L23 = tested on: COR-L23
Method in brief: as §1

SW 1573 = tested on: SW 1573
Method in brief: as §1

NCI-H727 = tested on: NCI-H727
Method in brief: as §1

H3255 = tested on: H3255
Method in brief: as §1

NCI-H596 = tested on: NCI-H596
Method in brief: as §1

LC-2-ad = tested on: LC-2-ad
Method in brief: as §1

LCLC-103H = tested on: LCLC-103H
Method in brief: as §1

NCI-H1563 = tested on: NCI-H1563
Method in brief: as §1

A-427 = tested on: A-427
Method in brief: as §1

NCI-H23 = tested on: NCI-H23
Method in brief: as §1

NCI-H2347 = tested on: NCI-H2347
Method in brief: as §1

PC-14 = tested on: PC-14
Method in brief: as §1

NCI-H2228 = tested on: NCI-H2228
Method in brief: as §1

## Cc1sc2c(c1C)C(c1ccc(Cl)cc1)=N[C@@H](CC(=O)OC(C)(C)C)c1nnc(C)n1-2 [JQ1] + CC(C)C[C@H](NC(=O)[C@H](Cc1ccccc1)NC(=O)c1cnccn1)B(O)O [Bortezomib] (partner 0.002 µM)
NCI-H1650; first compound 0.04 µM
  relative viability: 0.177
NCI-H1650; first compound 0.1265 µM
  relative viability: 0.191
NCI-H1650; first compound 0.4 µM
  relative viability: 0.187
NCI-H1650; first compound 1.265 µM
  relative viability: 0.175
NCI-H1650; first compound 4 µM
  relative viability: 0.208
HCC-44; first compound 0.04 µM
  relative viability: 0.941
HCC-44; first compound 0.1265 µM
  relative viability: 0.702
HCC-44; first compound 0.4 µM
  relative viability: 0.744
HCC-44; first compound 1.265 µM
  relative viability: 0.461
HCC-44; first compound 4 µM
  relative viability: 0.224
NCI-H460; first compound 0.04 µM
  relative viability: 1.05
NCI-H460; first compound 0.1265 µM
  relative viability: 0.611
NCI-H460; first compound 0.4 µM
  relative viability: 0.456
NCI-H460; first compound 1.265 µM
  relative viability: 0.224
NCI-H460; first compound 4 µM
  relative viability: 0.212
LU99A; first compound 0.04 µM
  relative viability: 1.32
LU99A; first compound 0.1265 µM
  relative viability: 0.8
LU99A; first compound 0.4 µM
  relative viability: 0.802
LU99A; first compound 1.265 µM
  relative viability: 0.426
LU99A; first compound 4 µM
  relative viability: 0.265
LCLC-97TM1; first compound 0.04 µM
  relative viability: 0.492
LCLC-97TM1; first compound 0.1265 µM
  relative viability: 0.533
LCLC-97TM1; first compound 0.4 µM
  relative viability: 0.336
LCLC-97TM1; first compound 1.265 µM
  relative viability: 0.0995
LCLC-97TM1; first compound 4 µM
  relative viability: 0.0548
201T; first compound 0.04 µM
  relative viability: 1.14
201T; first compound 0.1265 µM
  relative viability: 0.643
201T; first compound 0.4 µM
  relative viability: 1.02
201T; first compound 1.265 µM
  relative viability: 0.859
201T; first compound 4 µM
  relative viability: 0.768
COR-L23; first compound 0.04 µM
  relative viability: 0.981
COR-L23; first compound 0.1265 µM
  relative viability: 0.673
COR-L23; first compound 0.4 µM
  relative viability: 0.792
COR-L23; first compound 1.265 µM
  relative viability: 0.579
COR-L23; first compound 4 µM
  relative viability: 0.17
SW 1573; first compound 0.04 µM
  relative viability: 1.13
SW 1573; first compound 0.1265 µM
  relative viability: 1.03
SW 1573; first compound 0.4 µM
  relative viability: 0.863
SW 1573; first compound 1.265 µM
  relative viability: 0.582
SW 1573; first compound 4 µM
  relative viability: 0.351
NCI-H727; first compound 0.04 µM
  relative viability: 0.756
NCI-H727; first compound 0.1265 µM
  relative viability: 1.01
NCI-H727; first compound 0.4 µM
  relative viability: 0.588
NCI-H727; first compound 1.265 µM
  relative viability: 0.38
NCI-H727; first compound 4 µM
  relative viability: 0.395
H3255; first compound 0.04 µM
  relative viability: 0.628
H3255; first compound 0.1265 µM
  relative viability: 0.553
H3255; first compound 0.4 µM
  relative viability: 0.747
H3255; first compound 1.265 µM
  relative viability: 0.306
H3255; first compound 4 µM
  relative viability: 0.278
NCI-H596; first compound 0.04 µM
  relative viability: 0.945
NCI-H596; first compound 0.1265 µM
  relative viability: 0.781
NCI-H596; first compound 0.4 µM
  relative viability: 0.955
NCI-H596; first compound 1.265 µM
  relative viability: 0.673
NCI-H596; first compound 4 µM
  relative viability: 0.344
LC-2-ad; first compound 0.04 µM
  relative viability: 0.853
LC-2-ad; first compound 0.1265 µM
  relative viability: 0.391
LC-2-ad; first compound 0.4 µM
  relative viability: 0.787
LC-2-ad; first compound 1.265 µM
  relative viability: 0.131
LC-2-ad; first compound 4 µM
  relative viability: 0.109
LCLC-103H; first compound 0.04 µM
  relative viability: 1.04
LCLC-103H; first compound 0.1265 µM
  relative viability: 1.01
LCLC-103H; first compound 0.4 µM
  relative viability: 1.06
LCLC-103H; first compound 1.265 µM
  relative viability: 0.557
LCLC-103H; first compound 4 µM
  relative viability: 0.439
NCI-H1563; first compound 0.04 µM
  relative viability: 0.909
NCI-H1563; first compound 0.1265 µM
  relative viability: 0.619
NCI-H1563; first compound 0.4 µM
  relative viability: 0.642
NCI-H1563; first compound 1.265 µM
  relative viability: 0.544
NCI-H1563; first compound 4 µM
  relative viability: 0.621
A-427; first compound 0.04 µM
  relative viability: 0.969
A-427; first compound 0.1265 µM
  relative viability: 1.04
A-427; first compound 0.4 µM
  relative viability: 0.979
A-427; first compound 1.265 µM
  relative viability: 0.682
A-427; first compound 4 µM
  relative viability: 0.474
NCI-H23; first compound 0.04 µM
  relative viability: 1.07
NCI-H23; first compound 0.1265 µM
  relative viability: 0.86
NCI-H23; first compound 0.4 µM
  relative viability: 0.666
NCI-H23; first compound 1.265 µM
  relative viability: 0.241
NCI-H23; first compound 4 µM
  relative viability: 0.332
NCI-H2347; first compound 0.04 µM
  relative viability: 1.13
NCI-H2347; first compound 0.1265 µM
  relative viability: 0.934
NCI-H2347; first compound 0.4 µM
  relative viability: 0.841
NCI-H2347; first compound 1.265 µM
  relative viability: 0.564
NCI-H2347; first compound 4 µM
  relative viability: 0.404
PC-14; first compound 0.04 µM
  relative viability: 0.811
PC-14; first compound 0.1265 µM
  relative viability: 0.901
PC-14; first compound 0.4 µM
  relative viability: 0.888
PC-14; first compound 1.265 µM
  relative viability: 0.346
PC-14; first compound 4 µM
  relative viability: 0.201
NCI-H2228; first compound 0.04 µM
  relative viability: 0.764
NCI-H2228; first compound 0.1265 µM
  relative viability: 0.918
NCI-H2228; first compound 0.4 µM
  relative viability: 0.609
NCI-H2228; first compound 1.265 µM
  relative viability: 0.245
NCI-H2228; first compound 4 µM
  relative viability: 0.185
